Measured values taken from ChEMBL document CHEMBL1134127, “A mechanism-based affinity-labeling agent for possible use in isolating N-acetylglucosaminidase” (Bioorg Med Chem Lett, 2001).
pKi: −log10 of the molar value.

Assay: Inhibitory activity against O-linked N-acetyl-glucosaminidase (O-GlcNAc'ase)
Set-up: species or system Rattus norvegicus

Compound: CC(=O)NC1[C@@H](O)[C@@H](O)C(CO)O[C@H]1SC1CC(=O)N(c2ccc(C(=O)c3ccccc3)cc2)C1=O (stereo partly specified)
- pKi: 4.30
